According to publication PMC12472391, “Borylated Five-Membered Ring Iminosugars: Synthesis, Spectroscopic Analysis, and Biological Evaluation for Glycosidase Inhibition and Anticancer Properties for Application in Boron Neutron Capture Therapy (BNCT)—Part 1” (Pharmaceuticals, 2025):

What was measured:
Experiment in all cases: Glycosidase inhibition, Table 6 (Laboratory 1)
Assay type in all cases: biochemical
α-D-glucosidase (rice) = α-D-glucosidase (rice) (Oryza sativa subsp. japonica, UniProt Q653V7)
[1] = molecular target: T1, α,α-trehalase (porcine kidney) (Sus scrofa, UniProt I3LIR5)
T1 construct: purchased Sigma-Aldrich Co
T1 sequence (I3LIR5 24-583): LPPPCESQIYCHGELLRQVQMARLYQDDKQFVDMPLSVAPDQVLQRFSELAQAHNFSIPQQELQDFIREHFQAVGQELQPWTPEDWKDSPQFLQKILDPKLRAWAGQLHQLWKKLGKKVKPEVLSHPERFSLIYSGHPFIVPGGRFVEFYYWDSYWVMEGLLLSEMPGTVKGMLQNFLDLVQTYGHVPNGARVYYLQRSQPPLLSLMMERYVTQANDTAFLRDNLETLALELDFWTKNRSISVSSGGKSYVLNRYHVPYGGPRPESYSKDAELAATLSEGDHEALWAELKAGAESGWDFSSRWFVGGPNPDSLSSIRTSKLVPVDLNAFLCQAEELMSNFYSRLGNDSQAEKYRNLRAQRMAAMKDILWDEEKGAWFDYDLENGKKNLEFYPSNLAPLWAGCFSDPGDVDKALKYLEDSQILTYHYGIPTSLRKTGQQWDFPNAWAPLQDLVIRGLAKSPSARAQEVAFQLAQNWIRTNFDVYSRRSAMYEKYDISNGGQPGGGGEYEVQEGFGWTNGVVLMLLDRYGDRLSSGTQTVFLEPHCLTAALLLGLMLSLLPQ
From the text: (§1) The enzymes α-D-glucosidase (from yeast), β-D-glucosidases (from almond and bovine liver), α-D-galactosidase (from coffee beans), β-D-galactosidase (from bovine liver), α-D-mannosidase (from Jack bean), β-D-mannosidase (from snail), α-L-rhamnosidase (from Penicillium decumbens), α-L-fucosidase (from bovine kidney), trehalase (from porcine kidney), β-D-glucuronidases (from E. coli and bovine liver), amyloglucosidase (from A. niger), para-nitrophenyl glycosides, and various disaccharides were purchased from Sigma-Aldrich Co. (St. Louis, MO, USA).
(§2) Brush border membranes were prepared from the rat small intestine according to the method of Kessler et al., and were assayed at pH 6.8 for rat intestinal maltase using maltose. For rat intestinal maltase, porcine kidney trehalase, and A. niger amyloglucosidase activities, the reaction mixture contained maltose (25 mM) and the appropriate amount of enzyme, and the incubations were performed for 10–30 min at 37 °C. The reaction was stopped by heating at 100 °C for 3 min. After centrifugation (600× g; 10 min), the resulting reaction mixture was added to the Glucose CII-test Wako (Wako Pure Chemical Ind., Osaka, Japan). The absorbance at 505 nm was measured to determine the amount of the released D-glucose. Other glycosidase activities were determined using an appropriate para-nitrophenyl glycoside as substrate at the optimum pH of each enzyme. The reaction mixture contained the substrate (2 mM) and the appropriate amount of enzyme. The reaction was stopped by the addition of Na2CO3 (400 mM). The released para-nitrophenol was measured spectrometrically at 400 nm. All reactions run in methanol.

[2] = molecular target: T2, β-D-galactosidase (bovine liver) (Bos taurus, UniProt Q58D55)
T2 sequence (Q58D55 28-653): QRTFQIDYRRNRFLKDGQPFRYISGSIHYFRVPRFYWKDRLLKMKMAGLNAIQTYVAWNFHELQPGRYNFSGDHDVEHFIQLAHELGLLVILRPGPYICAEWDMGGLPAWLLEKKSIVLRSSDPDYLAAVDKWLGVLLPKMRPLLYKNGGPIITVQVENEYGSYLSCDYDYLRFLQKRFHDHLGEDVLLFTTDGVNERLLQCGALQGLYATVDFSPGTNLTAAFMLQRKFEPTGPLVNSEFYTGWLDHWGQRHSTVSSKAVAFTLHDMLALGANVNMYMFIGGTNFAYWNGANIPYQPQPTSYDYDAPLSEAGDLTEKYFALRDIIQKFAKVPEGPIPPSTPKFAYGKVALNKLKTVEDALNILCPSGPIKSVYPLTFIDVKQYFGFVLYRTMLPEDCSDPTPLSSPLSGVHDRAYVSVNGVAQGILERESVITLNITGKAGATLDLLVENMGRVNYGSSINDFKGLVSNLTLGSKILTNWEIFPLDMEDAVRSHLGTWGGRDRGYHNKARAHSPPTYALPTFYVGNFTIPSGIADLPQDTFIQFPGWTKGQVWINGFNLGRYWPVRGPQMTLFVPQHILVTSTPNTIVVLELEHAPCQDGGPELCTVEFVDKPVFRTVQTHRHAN
From the text: as §1, §2

[3] = test system: β-D-mannosidase (from snail); settings: 100 μM
From the text: as §1, §2

β-D-glucosidase (almond) = settings: 100 μM
From the text: as §1, §2

[4] = molecular target: T3, α-D-glucosidase (from yeast) (Saccharomyces cerevisiae, UniProt P53341)
T3 construct: purchased Sigma-Aldrich Co
From the text: as §1, §2

[5] = test system: α-L-rhamnosidase (from Penicillium decumbens); settings: 100 μM
From the text: as §1, §2

[6] = test system: α-D-glucosidase (rat intestinal maltase); settings: 100 μM
From the text: as §1, §2

[7] = molecular target: T4, α-L-fucosidase (from bovine kidney) (Bos taurus, UniProt Q2KIM0)
T4 construct: purchased Sigma-Aldrich Co
T4 sequence (Q2KIM0 23-468): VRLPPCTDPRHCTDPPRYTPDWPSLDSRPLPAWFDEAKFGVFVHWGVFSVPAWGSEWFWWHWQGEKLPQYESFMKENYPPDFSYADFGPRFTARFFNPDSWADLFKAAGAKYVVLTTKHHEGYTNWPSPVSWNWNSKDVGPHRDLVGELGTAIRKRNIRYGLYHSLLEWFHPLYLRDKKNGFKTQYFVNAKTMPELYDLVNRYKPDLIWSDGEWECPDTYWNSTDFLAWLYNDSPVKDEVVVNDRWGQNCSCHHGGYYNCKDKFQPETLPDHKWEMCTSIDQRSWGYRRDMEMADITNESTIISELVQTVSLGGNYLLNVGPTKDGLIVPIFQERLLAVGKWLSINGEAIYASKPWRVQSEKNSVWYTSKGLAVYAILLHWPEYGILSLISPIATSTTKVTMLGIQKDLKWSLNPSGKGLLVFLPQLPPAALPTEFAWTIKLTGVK
From the text: as §1, §2

[8] = test system: β-D-glucosidase (bovine liver); settings: 100 μM
From the text: as §1, §2

[9] = molecular target: T5, β-D-glucuronidase (E. coli) (Escherichia coli, UniProt P05804)
T5 construct: purchased Sigma-Aldrich Co
From the text: as §1, §2

[10] = molecular target: T6, α-D-galactosidase (from coffee beans) (Coffea arabica, UniProt Q42656)
T6 construct: purchased Sigma-Aldrich Co
From the text: as §1, §2

[11] = test system: β-D-glucuronidase (bovine liver); settings: 100 μM
From the text: as §1, §2

[12] = molecular target: T7, amyloglucosidase (from A. niger) (Aspergillus niger, UniProt P69328)
T7 construct: purchased Sigma-Aldrich Co
From the text: as §1, §2

α-D-glucosidase (rice), sequence (Q653V7 34-885): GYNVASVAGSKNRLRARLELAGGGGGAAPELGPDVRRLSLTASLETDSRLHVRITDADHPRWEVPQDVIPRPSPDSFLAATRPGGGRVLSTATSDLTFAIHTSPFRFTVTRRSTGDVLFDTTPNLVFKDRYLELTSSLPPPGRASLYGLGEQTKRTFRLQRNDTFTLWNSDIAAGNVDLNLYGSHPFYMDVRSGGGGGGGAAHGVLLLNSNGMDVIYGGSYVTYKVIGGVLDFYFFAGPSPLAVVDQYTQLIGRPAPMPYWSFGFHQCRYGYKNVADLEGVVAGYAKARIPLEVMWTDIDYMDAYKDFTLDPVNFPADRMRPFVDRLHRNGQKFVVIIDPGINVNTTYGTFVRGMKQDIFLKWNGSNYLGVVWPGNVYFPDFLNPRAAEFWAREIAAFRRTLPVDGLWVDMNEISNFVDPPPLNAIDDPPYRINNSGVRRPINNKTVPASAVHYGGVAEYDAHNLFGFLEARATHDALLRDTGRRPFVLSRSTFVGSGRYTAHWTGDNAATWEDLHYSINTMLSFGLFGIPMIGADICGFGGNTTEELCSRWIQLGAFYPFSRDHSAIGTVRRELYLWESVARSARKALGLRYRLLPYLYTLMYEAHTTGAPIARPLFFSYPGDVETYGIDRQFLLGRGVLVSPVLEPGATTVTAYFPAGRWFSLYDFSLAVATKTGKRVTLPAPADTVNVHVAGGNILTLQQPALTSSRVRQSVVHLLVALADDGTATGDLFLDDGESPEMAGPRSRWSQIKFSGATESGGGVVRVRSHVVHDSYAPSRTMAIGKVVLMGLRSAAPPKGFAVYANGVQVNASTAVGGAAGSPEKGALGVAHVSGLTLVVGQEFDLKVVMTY
T7 sequence (P69328 25-640): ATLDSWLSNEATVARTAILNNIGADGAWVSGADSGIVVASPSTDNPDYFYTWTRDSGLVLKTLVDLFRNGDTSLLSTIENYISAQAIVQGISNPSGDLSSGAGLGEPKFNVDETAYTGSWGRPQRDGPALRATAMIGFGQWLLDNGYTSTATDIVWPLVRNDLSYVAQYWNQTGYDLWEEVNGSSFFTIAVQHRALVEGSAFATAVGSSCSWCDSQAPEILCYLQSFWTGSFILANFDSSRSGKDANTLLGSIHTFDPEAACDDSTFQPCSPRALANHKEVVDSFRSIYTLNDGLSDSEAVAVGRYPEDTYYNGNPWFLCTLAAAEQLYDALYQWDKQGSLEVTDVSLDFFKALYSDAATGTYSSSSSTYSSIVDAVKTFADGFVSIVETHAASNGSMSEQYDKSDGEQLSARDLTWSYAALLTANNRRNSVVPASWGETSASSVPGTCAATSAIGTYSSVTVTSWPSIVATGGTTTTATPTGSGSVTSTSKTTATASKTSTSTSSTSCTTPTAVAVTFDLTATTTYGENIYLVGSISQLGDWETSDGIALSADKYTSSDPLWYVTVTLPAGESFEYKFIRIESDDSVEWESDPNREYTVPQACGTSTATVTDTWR
T6 sequence (Q42656 16-378): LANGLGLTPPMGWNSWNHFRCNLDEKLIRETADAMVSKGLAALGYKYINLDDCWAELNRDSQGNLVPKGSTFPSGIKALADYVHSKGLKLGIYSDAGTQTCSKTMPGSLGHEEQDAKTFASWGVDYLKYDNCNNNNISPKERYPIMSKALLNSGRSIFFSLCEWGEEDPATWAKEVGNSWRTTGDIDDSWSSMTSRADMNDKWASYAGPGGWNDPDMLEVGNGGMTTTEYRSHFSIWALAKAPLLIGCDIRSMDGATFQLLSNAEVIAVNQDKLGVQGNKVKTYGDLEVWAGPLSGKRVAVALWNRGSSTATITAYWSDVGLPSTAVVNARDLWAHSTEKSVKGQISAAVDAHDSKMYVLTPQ
T3 sequence (P53341 whole entry): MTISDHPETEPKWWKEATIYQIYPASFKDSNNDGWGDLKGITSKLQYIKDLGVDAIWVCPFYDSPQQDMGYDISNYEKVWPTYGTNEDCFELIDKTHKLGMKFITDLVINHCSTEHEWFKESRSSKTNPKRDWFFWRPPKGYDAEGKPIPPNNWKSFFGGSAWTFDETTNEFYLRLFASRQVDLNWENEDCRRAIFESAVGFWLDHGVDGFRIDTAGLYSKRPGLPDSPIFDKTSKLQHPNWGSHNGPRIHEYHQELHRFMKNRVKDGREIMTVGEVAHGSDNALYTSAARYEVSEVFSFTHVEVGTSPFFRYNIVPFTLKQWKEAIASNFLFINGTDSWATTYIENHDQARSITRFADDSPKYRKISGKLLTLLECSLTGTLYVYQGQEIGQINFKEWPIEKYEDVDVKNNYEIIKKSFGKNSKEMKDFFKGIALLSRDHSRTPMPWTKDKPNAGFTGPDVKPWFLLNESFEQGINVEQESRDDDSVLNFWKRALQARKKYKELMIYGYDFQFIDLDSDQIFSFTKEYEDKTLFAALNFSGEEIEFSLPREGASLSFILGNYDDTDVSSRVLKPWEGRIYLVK
T5 sequence (P05804 whole entry): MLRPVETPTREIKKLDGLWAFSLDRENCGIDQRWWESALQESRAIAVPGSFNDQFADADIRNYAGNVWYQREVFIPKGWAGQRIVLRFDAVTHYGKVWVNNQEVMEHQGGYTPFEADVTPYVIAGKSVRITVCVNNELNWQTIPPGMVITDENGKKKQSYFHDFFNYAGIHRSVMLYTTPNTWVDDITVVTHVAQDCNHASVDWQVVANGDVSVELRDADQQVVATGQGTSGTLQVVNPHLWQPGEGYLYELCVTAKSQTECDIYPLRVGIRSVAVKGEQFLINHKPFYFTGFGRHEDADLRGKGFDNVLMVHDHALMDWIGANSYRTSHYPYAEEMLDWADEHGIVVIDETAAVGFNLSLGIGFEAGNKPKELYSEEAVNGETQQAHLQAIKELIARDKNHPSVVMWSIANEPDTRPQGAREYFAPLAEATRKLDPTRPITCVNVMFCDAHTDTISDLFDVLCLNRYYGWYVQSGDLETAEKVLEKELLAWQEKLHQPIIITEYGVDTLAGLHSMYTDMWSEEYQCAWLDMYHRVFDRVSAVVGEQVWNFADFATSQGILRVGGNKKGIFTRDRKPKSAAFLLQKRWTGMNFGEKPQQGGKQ

With CC1(C)O[C@H]2O[C@H]3[C@@H]([C@H]2O1)N(Cc1ccccc1)C[C@H]3O [Compound 3, N-Benzyl-3,6-dideoxy-3,6-imino-1,2-O-isopropylidene-α-D-gulofuranose] the inhibition at 100 µM (α-D-glucosidase (rice)) was 0%, the inhibition at 100 µM [1] was 0% and the inhibition at 100 µM [2] was 26.1%. For the same compound, the “β-D-Mannosidase Snail, inhibition % at 100 μM” value [3] was “^c NI ^d (2.7%)”, the “β-D-Glucosidase Almond, inhibition % at 100 μM” value (β-D-glucosidase (almond)) was “^c NI ^d (0%)” and the inhibition at 100 µM [4] was 4.7%. The “α-L-Rhamnosidase P. decumbens, inhibition % at 100 μM” value [5] was “^c NI ^d (0.5%)”, the “α-D-Glucosidase Rat Intestinal Maltase, inhibition % at 100 μM” value [6] was “^c NI ^d (0%)” and the inhibition at 100 µM [7] was 0%. The “β-D-Glucosidase Bovine Liver, inhibition % at 100 μM” value [8] was “^c NI ^d (31.9%)”, the inhibition at 100 µM [9] was 2.4% and the inhibition at 100 µM [10] was 9.5%. The “β-D-Glucuronidase Bovine Liver, inhibition % at 100 μM” value [11] was “^c NI ^d (0%)” and the inhibition at 100 µM [12] was 0%.

For CC1(C)O[C@H]2O[C@H]3[C@@H]([C@H]2O1)N(Cc1ccc(B2OC(C)(C)C(C)(C)O2)cc1)C[C@H]3O [para 6, N-(4-Methylphenylboronic acid pinacol ester)-3,6-dideoxy-3,6-imino-1,2-O-isopropylidene-α-D-gulofuranose], the inhibition at 100 µM (α-D-glucosidase (rice)) was 0%, the inhibition at 100 µM [1] was 0% and the inhibition at 100 µM [2] was 22.3%. The “β-D-Mannosidase Snail, inhibition % at 100 μM” value [3] was “^c NI ^d (0%)”, the “β-D-Glucosidase Almond, inhibition % at 100 μM” value (β-D-glucosidase (almond)) was “^c NI ^d (0%)” and the inhibition at 100 µM [4] was 3.4%. The “α-L-Rhamnosidase P. decumbens, inhibition % at 100 μM” value [5] was “^c NI ^d (1.4%)”, the “α-D-Glucosidase Rat Intestinal Maltase, inhibition % at 100 μM” value [6] was “^c NI ^d (0%)” and the inhibition at 100 µM [7] was 0%. The “β-D-Glucosidase Bovine Liver, inhibition % at 100 μM” value [8] was “^c NI ^d (13%)”, the inhibition at 100 µM [9] was 3.2% and the inhibition at 100 µM [10] was 1.6%. The “β-D-Glucuronidase Bovine Liver, inhibition % at 100 μM” value [11] was “^c NI ^d (0%)” and the inhibition at 100 µM [12] was 0%.
